≈ marks a conversion by molar mass, not a printed value. Where two headings read alike, the source gives them in different places.
Test system: MRSA
Assay: MIC, in vitro susceptibility testing (CLSI)
Type: cell-based, Staphylococcus aureus
Conditions: for MIC: Staphylococcus aureus, MRSA

CNc1cc(F)cc2c1[nH]c1nc(Oc3cnc(C)nc3)nc(N3CCC4(CC3)CO[C@@H](CO)C4)c12 [JSF-2414]
MIC range (101 strains (Van: 8)): 0.002 to 0.125 µg/mL
MIC (101 clinical MRSA strains, read-out: modal MIC): 0.031 µg/mL (≈ 0.0628 µM)
MIC (ciprofloxacin-resistant strains (MIC >4 μg/mL), n = 30, read-out: modal MIC): 0.062 µg/mL (≈ 0.126 µM)
MIC (discussion, read-out: MIC): 0.031 µg/mL (≈ 0.0628 µM)
MIC (strain 2 11 41, read-out: MIC): 0.062 µg/mL (≈ 0.126 µM)
MIC (strain 2 11 42, read-out: MIC): 0.016 µg/mL (≈ 0.0324 µM)
MIC (strain 2 11 43, read-out: MIC): 0.062 µg/mL (≈ 0.126 µM)
MIC (strain 2 11 56, read-out: MIC): 0.004 µg/mL (≈ 0.0081 µM)
MIC (strain 2 11 57, read-out: MIC): 0.125 µg/mL (≈ 0.253 µM)
MIC (strain 2 11 58, read-out: MIC): 0.002 µg/mL (≈ 0.00405 µM)
MIC (strain 2 11 60, read-out: MIC): 0.004 µg/mL (≈ 0.0081 µM)
MIC (strain 2 11 61, read-out: MIC): 0.004 µg/mL (≈ 0.0081 µM)
MIC (strain 2 11 65, read-out: MIC): 0.062 µg/mL (≈ 0.126 µM)
MIC (strain 2 11 66, read-out: MIC): 0.062 µg/mL (≈ 0.126 µM)
MIC (strain 2 11 67, read-out: MIC): 0.004 µg/mL (≈ 0.0081 µM)
MIC (strain 2 11 68, read-out: MIC): 0.004 µg/mL (≈ 0.0081 µM)
MIC (strain 2 11 71, read-out: MIC): 0.062 µg/mL (≈ 0.126 µM)
MIC (strain 2 11 74, read-out: MIC): 0.062 µg/mL (≈ 0.126 µM)
MIC (strain 2 11 75, read-out: MIC): 0.008 µg/mL (≈ 0.0162 µM)
MIC (strain 2 11 79, read-out: MIC): 0.062 µg/mL (≈ 0.126 µM)
MIC (strain 2 11 80, read-out: MIC): 0.002 µg/mL (≈ 0.00405 µM)
MIC (strain 2 11 83, read-out: MIC): 0.062 µg/mL (≈ 0.126 µM)
MIC (strain 2 11 84, read-out: MIC): 0.031 µg/mL (≈ 0.0628 µM)
MIC (strain 2 11 86, read-out: MIC): 0.002 µg/mL (≈ 0.00405 µM)
MIC (strain 2 11 87, read-out: MIC): 0.062 µg/mL (≈ 0.126 µM)
MIC (strain 2 11 90, read-out: MIC): 0.125 µg/mL (≈ 0.253 µM)
MIC (strain 2 11 91, read-out: MIC): 0.016 µg/mL (≈ 0.0324 µM)
MIC (strain 2 11 99, read-out: MIC): 0.008 µg/mL (≈ 0.0162 µM)
MIC (strain 2 12 13, read-out: MIC): 0.125 µg/mL (≈ 0.253 µM)
MIC (strain 2 12 76, read-out: MIC): 0.031 µg/mL (≈ 0.0628 µM)
MIC (strain 2 12 78, read-out: MIC): 0.016 µg/mL (≈ 0.0324 µM)
MIC (strain 2 12 88, read-out: MIC): 0.004 µg/mL (≈ 0.0081 µM)
MIC (strain 2 13 19, read-out: MIC): 0.016 µg/mL (≈ 0.0324 µM)
MIC (strain 2 13 23, read-out: MIC): 0.125 µg/mL (≈ 0.253 µM)
MIC (strain 2 13 26, read-out: MIC): 0.004 µg/mL (≈ 0.0081 µM)
MIC (strain 2 13 27, read-out: MIC): 0.016 µg/mL (≈ 0.0324 µM)
MIC (strain 2 13 29, read-out: MIC): 0.002 µg/mL (≈ 0.00405 µM)
MIC (strain 2 13 32, read-out: MIC): 0.004 µg/mL (≈ 0.0081 µM)
MIC (strain 2 13 33, read-out: MIC): 0.016 µg/mL (≈ 0.0324 µM)
MIC (strain 2 13 41, read-out: MIC): 0.125 µg/mL (≈ 0.253 µM)
MIC (strain 2 13 43, read-out: MIC): 0.062 µg/mL (≈ 0.126 µM)
MIC (strain 2 13 47, read-out: MIC): 0.125 µg/mL (≈ 0.253 µM)
MIC (strain 2 13 48, read-out: MIC): 0.002 µg/mL (≈ 0.00405 µM)
MIC (strain 2 13 52, read-out: MIC): 0.002 µg/mL (≈ 0.00405 µM)
MIC (strain 2 13 53, read-out: MIC): 0.062 µg/mL (≈ 0.126 µM)
MIC (strain 2 13 54, read-out: MIC): 0.062 µg/mL (≈ 0.126 µM)
MIC (strain 2 13 55, read-out: MIC): 0.062 µg/mL (≈ 0.126 µM)
MIC (strain 2 13 56, read-out: MIC): 0.062 µg/mL (≈ 0.126 µM)
MIC (strain 2 13 57, read-out: MIC): 0.016 µg/mL (≈ 0.0324 µM)
MIC (strain 2 13 58, read-out: MIC): 0.031 µg/mL (≈ 0.0628 µM)
MIC (strain 2 35 90, read-out: MIC): 0.016 µg/mL (≈ 0.0324 µM)
MIC (strain 2 36 04, read-out: MIC): 0.031 µg/mL (≈ 0.0628 µM)
MIC (strain 2 36 17, read-out: MIC): 0.031 µg/mL (≈ 0.0628 µM)

Source: article PMC9487510, “A Novel Oral GyrB/ParE Dual Binding Inhibitor Effective against Multidrug-Resistant Neisseria gonorrhoeae and Other High-Threat Pathogens” (Antimicrobial Agents and Chemotherapy, 2022)
